Reference: patent publication US6989393B2, “Ccr5 modulators benzimidazoles or benzotriazoles” (AstraZeneca AB, priority 2000, dated 2006)

Compound | melting point [°C]
c1ccc(C(CCN2CCC(n3cnc4ccccc43)CC2)c2ccccc2)cc1 [Example 2, 1-[1-(3,3-Diphenylpropyl)-piperidin-4-yl]benzimidazole] | 156 to 157
N#CC(CCN1CCC(n2cnc3ccccc32)CC1)(c1ccccc1)c1ccccc1 [Example 19, 1-[1-(3-Cyano-3,3-diphenylpropyl)-piperidin-4-yl]benzimidazole] | 172 to 173
